Our source for the EC50 values is patent EP1257544B1, “PIPERAZINE AND PIPERIDINE DERIVATIVES FOR TREATMENT OR PREVENTION OF NEURONAL DAMAGE” (VERTEX PHARMACEUTICALS INCORPORATED, priority 2000, dated 2001).

What is called EC50 is the concentration at which the effect is half-maximal.

Structures can show the parent of a compound that is named as a salt.

For this test, the system named is Dissociated VM cells. Description: Neuroprotection Assay (NMDA-induced neuroexcitotoxic injury, high affinity 3H-dopamine uptake). It counts as cell-based, Sprague-Dawley rat. The note with it: embryonic day 15 rat ventral mesencephalic cultures, NMDA (100-400 µM) for 20 hours. From the text: The neuroprotective activity of the compounds of this invention may be assayed using rat embryo ventral mesencephalic cells in culture which are subsequently exposed to the glutamate receptor agonist NMDA. This assay is described in detail in the example section.
The ventral mesencephalic region was dissected out of embryonic day 15 Sprague-Dawley rat embryos (Harlan), dissociated into single cell suspension by a combination of trypsinization and trituration (Costantini et al., Neurobiol Dis., pp. 97-106 (1998). Dissociated VM cells were plated into poly-L-ornithine-coated 96-well plates at a density of 85,000 cells/well in 100 uL of DMEM supplemented with 18% heat-inactivated horse serum, 0.24% glucose, 2 mM glutamine and 50 u/ml pernicillin/streptomycin and incubated in a 5% CO2 incubator. After one day in culture (DIV1), the medium was replaced with 100 µL of a defined medium (DMEM supplemented with 1x N2 cocktail (Gibco-BRL), 0.12% glucose, 2 mM glutamine, and 50 units/ml penicillin/streptomycin) containing DMSO or various concentrations of the compounds of this invention. On DIV5, neuroexcitotoxic injury was induced by the addition of various concentrations of the glutamate receptor agonist NMDA (100-400 µM). Cultures were incubated with the neurotoxin for 20 hours and the effects of neurophilin compounds were assessed using high affinity ^3H-dopamine uptake according to a procedure published by Park and Mytilineou [Brain Res., 599, pp. 83-97 (1992)].
On to `O=C(C1CCN(Cc2ccccc2)CC1)N1CCN(c2ccc(F)cc2)CC1` [Compound 256], for which the concentration giving a half-maximal response (EC50) fell in the range of 100 to 500 nM.
Then `CC(C)=CCN1CCC(C(=O)N2CCC(Cc3ccc(F)cc3)CC2)CC1` [Compound 276], with less than 100 nM; and `CN1CCCC(C(=O)N2CCN(C(c3ccc(F)cc3)c3ccc(F)cc3)CC2)C1` (centres unmarked) [Compound 220], with more than 500 nM.
The figure for `O=C([C@@H]1CCCN1Cc1ccccc1)N1CCN(Cc2ccc(F)cc2)CC1` [Compound 87, ((2S)-1-Benzyl-pyrrolidin-2-yl)-[4-(4-fluoro-benzyl)-piperazin-1-yl] methanone] is more than 500 nM; for `CO[C@@H]1C[C@@H](C(=O)N2CCC(Cc3ccccc3)CC2)N(Cc2ccccc2)C1` [Compound 153, ((2S,4R)-1-Benzyl-4-methoxypyrrolidin-2-yl)-(4-benzylpiperdin-1-yl)-methanone] it is more than 500 nM; for `CCN1CCCC[C@H]1C(=O)N1CCC(Cc2ccccc2)C1` (stereo partly drawn) [Compound 35, (3-Benzylpyrrolidin-1-yl)-((2S)-1-ethylpiperidin-2-yl)-methanone] it is 100 to 500 nM.
As to `CN1CCC(C(=O)N2CCN(C(c3ccc(F)cc3)c3ccc(F)cc3)CC2)CC1` [Compound 218], the 50% effective concentration (EC50) lay in the range of 100 to 500 nM.
Consider `CCN1CCC(C(=O)N2CCC(Cc3ccc(F)cc3)CC2)CC1` [Compound 270], for which the EC50 lay within 100 to 500 nM.
Consider `C=CCN1CCC(C(=O)N2CCC(Cc3ccc(F)cc3)CC2)CC1` [Compound 274], for which the concentration for a half-maximal effect (EC50) is more than 500 nM.
As for `O=C(C1CCN(Cc2ccc(F)cc2)CC1)N1CCC(Cc2ccc(F)cc2)CC1` [Compound 257], the EC50 fell in the range of 100 to 500 nM.
On to `CC(C)=CCN1CCC(C(=O)N2CCN(c3ccc(F)cc3)CC2)CC1` [Compound 260], for which the EC50 is less than 100 nM.
Take `CN1CCCC(C(=O)N2CCC(Cc3ccc(F)cc3)CC2)C1` (centres unmarked) [Compound 90, [4-(4-Fluorobenzyl)piperidin-1-yl]-(1-methylpiperidin-3-yl) methanone hydrochloride]: the EC50 is less than 100 nM.
Take `CCN1CCCC[C@H]1C(=O)N1CCN(Cc2ccccn2)CC1` [Compound 38, ((2S)-1-Ethylpiperidin-2-yl)-(4-pyridin-2-ylmethylpiperazin-1-yl)-methanone trihydrochloride]: the EC50 was more than 500 nM.
For the compound `CCN1CCCC[C@H]1C(=O)N1CCN(Cc2ccc(Cl)c(Cl)c2)CC1` [Compound 69, [4-(3,4-Dichlorobenzyl)-piperazin-1-yl]-((2S)-1-ethylpiperidin-2-yl)-methanone dihydrochloride], the EC50 was less than 100 nM.
Regarding `O=C([C@@H]1CCCN1Cc1ccc(F)cc1)N1CCC(Cc2ccccc2)CC1` [Compound 58, (4-Benzylpiperidin-1-yl)-[(2S)-1-(4-fluorobenzyl)-Pyrrolidin-2-yl]-methanone hydrochloride], the EC50 was less than 100 nM.
For `CCN1CCCC[C@H]1C(=O)N1CCC(C(O)c2ccc(F)cc2)CC1` (stereo partly drawn) [Compound 46, ((2S)-1-Ethylpiperidin-2-yl)-{4-[(4-fluorophenyl)hydroxymethyl]-piperidin-1-yl}-methanone], the concentration for a half-maximal effect (EC50) is more than 500 nM.
For `CCN1CCCC[C@H]1C(=O)N1CCC(C(c2ccccc2)c2ccccc2)CC1` [Compound 44, (4-Benzhydrylpiperidin-1-yl)-((2S)-1-ethylpiperidin-2-yl)-methanone hydrochloride], the EC50 is less than 100 nM.
`CC(C)CN1CCC(C(=O)N2CCN(c3ccc(F)cc3)CC2)CC1` [Compound 264]: the EC50 was in the range of 100 to 500 nM.
As for `CCN1CCC[C@H]1C(=O)N1CCC(Cc2ccccc2)CC1` [Compound 53, (4-Benzylpiperidin-1-yl)-((2S)-1-ethylpyrrolidin-2-yl)-methanone hydrochloride], the concentration giving a half-maximal response (EC50) lay within 100 to 500 nM.
For `COc1ccc(CN2CCCC[C@H]2C(=O)N2CCN(C(c3ccccc3)c3ccccc3)CC2)cc1` [Compound 60, (4-Benzhydrylpiperazin-1-yl)-[(2S)-1-(4-methoxybenzyl)-piperidin-2-yl]-methanone dihydrochloride], the EC50 is less than 100 nM.
